# Data as given in ChEMBL document CHEMBL3885861, “Open TG-GATES”.
# Organism: Rattus norvegicus
# Experiment: Open TG-GATES - Regimen: Single
# Format: toxicity, organism-based, Sprague-Dawley
# Set-up: regimen Single, gender Male, age 6 weeks
# Details: in vivo, po, 40 mg/kg, route gavage, dose level Low; for APTT / Bas / Eos / Fbg / Hb / Ht / Lym / MCH / MCHC / MCV / Mono / Neu / PT / Plat / RBC / Ret / WBC: tissue Blood; for KIDNEY_L / KIDNEY_R / KIDNEY_TOTAL: tissue Kidney; for LIVER: tissue Liver; for A/G / ALP / ALT / AST / BUN / CRE / Ca / Cl / DBIL / GLC / IP / K / LDH / Na / PL / RALB / TBIL / TC / TG / TP / gamma-GTP: tissue Plasma
structure (smiles),measurement,setting,value
COc1ccc(Cc2nccc3cc(OC)c(OC)cc23)cc1OC [PAPAVERINE],TERMINAL_BW,3 h,231 g
same,APTT,3 h,22.7 s
same,Bas,3 h,0%
same,Eos,3 h,0.8%
same,Fbg,3 h,308.6 mg/dL
same,Hb,3 h,13.3 g/dL
same,Ht,3 h,39.9%
same,Lym,3 h,77%
same,MCH,3 h,20.8 pg
same,MCHC,3 h,33.4%
same,MCV,3 h,62.1 fL
same,Mono,3 h,2.2%
same,Neu,3 h,19%
same,PT,3 h,15.5 s
same,Plat,3 h,111.6 x10_4/uL
same,RBC,3 h,643.2 x10_4/ul
same,Ret,3 h,8.1%
same,WBC,3 h,104.1 x10_2/uL
same,KIDNEY_L,3 h,0.9 g
same,KIDNEY_R,3 h,0.9 g
same,KIDNEY_TOTAL,3 h,1.9 g
same,LIVER,3 h,10.4 g
same,A/G,3 h,1.2
same,ALP,3 h,1691.2 IU/L
same,ALT,3 h,41.2 IU/L
same,AST,3 h,79 IU/L
same,BUN,3 h,13.4 mg/dL
same,CRE,3 h,0.1 mg/dL
same,Ca,3 h,11.1 mg/dL
same,Cl,3 h,107.2 meq/L
same,DBIL,3 h,0 mg/dL
same,GLC,3 h,179 mg/dL
same,IP,3 h,7.7 mg/dL
same,K,3 h,4 meq/L
same,LDH,3 h,190.4 IU/L
same,Na,3 h,141.6 meq/L
same,PL,3 h,135 mg/dL
same,RALB,3 h,3 g/dL
same,TBIL,3 h,0.006 mg/dL
same,TC,3 h,75.2 mg/dL
same,TG,3 h,65.6 mg/dL
same,TP,3 h,5.4 g/dL
same,gamma-GTP,3 h,1.6 IU/L
same,TERMINAL_BW,6 h,221.8 g
same,APTT,6 h,21.2 s
same,Bas,6 h,0%
same,Eos,6 h,0.8%
same,Fbg,6 h,322.4 mg/dL
same,Hb,6 h,13.4 g/dL
same,Ht,6 h,39.9%
same,Lym,6 h,78.2%
same,MCH,6 h,20.7 pg
same,MCHC,6 h,33.7%
same,MCV,6 h,61.5 fL
same,Mono,6 h,2.8%
same,Neu,6 h,16.8%
same,PT,6 h,15.8 s
same,Plat,6 h,129.6 x10_4/uL
same,RBC,6 h,647.8 x10_4/ul
same,Ret,6 h,7.6%
same,WBC,6 h,105.5 x10_2/uL
same,KIDNEY_L,6 h,1 g
same,KIDNEY_R,6 h,1 g
same,KIDNEY_TOTAL,6 h,1.9 g
same,LIVER,6 h,9.4 g
same,A/G,6 h,1.2
same,ALP,6 h,1422 IU/L
same,ALT,6 h,36.2 IU/L
same,AST,6 h,72.4 IU/L
same,BUN,6 h,10.6 mg/dL
same,CRE,6 h,0.1 mg/dL
same,Ca,6 h,11.1 mg/dL
same,Cl,6 h,106.8 meq/L
same,DBIL,6 h,0.002 mg/dL
same,GLC,6 h,179.8 mg/dL
same,IP,6 h,8.9 mg/dL
same,K,6 h,4.3 meq/L
same,LDH,6 h,161.2 IU/L
same,Na,6 h,140.6 meq/L
same,PL,6 h,124.6 mg/dL
same,RALB,6 h,3 g/dL
same,TBIL,6 h,0.012 mg/dL
same,TC,6 h,71.4 mg/dL
same,TG,6 h,64 mg/dL
same,TP,6 h,5.4 g/dL
same,gamma-GTP,6 h,2.2 IU/L
same,TERMINAL_BW,9 h,221.9 g
same,APTT,9 h,21 s
same,Bas,9 h,0%
same,Eos,9 h,1%
same,Fbg,9 h,325 mg/dL
same,Hb,9 h,13.5 g/dL
same,Ht,9 h,40.5%
same,Lym,9 h,78.6%
same,MCH,9 h,20.4 pg
same,MCHC,9 h,33.4%
same,MCV,9 h,61.2 fL
same,Mono,9 h,3%
same,Neu,9 h,16.6%
same,PT,9 h,15.4 s
same,Plat,9 h,114.2 x10_4/uL
same,RBC,9 h,661.8 x10_4/ul
same,Ret,9 h,7.6%
same,WBC,9 h,78.8 x10_2/uL
same,KIDNEY_L,9 h,1 g
same,KIDNEY_R,9 h,1 g
same,KIDNEY_TOTAL,9 h,1.9 g
same,LIVER,9 h,9.4 g
same,A/G,9 h,1.3
same,ALP,9 h,1463.2 IU/L
same,ALT,9 h,37 IU/L
same,AST,9 h,70.2 IU/L
same,BUN,9 h,11 mg/dL
same,CRE,9 h,0.1 mg/dL
same,Ca,9 h,11.1 mg/dL
same,Cl,9 h,107.4 meq/L
same,DBIL,9 h,0 mg/dL
same,GLC,9 h,183.6 mg/dL
same,IP,9 h,9.2 mg/dL
same,K,9 h,4 meq/L
same,LDH,9 h,150.2 IU/L
same,Na,9 h,140.6 meq/L
same,PL,9 h,133.6 mg/dL
same,RALB,9 h,3 g/dL
same,TBIL,9 h,0.02 mg/dL
same,TC,9 h,73.2 mg/dL
same,TG,9 h,69.8 mg/dL
same,TP,9 h,5.4 g/dL
same,gamma-GTP,9 h,1.6 IU/L
same,TERMINAL_BW,24 h,234.3 g
same,APTT,24 h,21.8 s
same,Bas,24 h,0%
same,Eos,24 h,0.8%
same,Fbg,24 h,309.2 mg/dL
same,Hb,24 h,13.5 g/dL
same,Ht,24 h,40.7%
same,Lym,24 h,82.6%
same,MCH,24 h,21.3 pg
same,MCHC,24 h,33.3%
same,MCV,24 h,63.9 fL
same,Mono,24 h,2.4%
same,Neu,24 h,13.2%
same,PT,24 h,16.3 s
same,Plat,24 h,114.1 x10_4/uL
same,RBC,24 h,636.4 x10_4/ul
same,Ret,24 h,7.1%
same,WBC,24 h,90.3 x10_2/uL
same,KIDNEY_L,24 h,1 g
same,KIDNEY_R,24 h,1 g
same,KIDNEY_TOTAL,24 h,2 g
same,LIVER,24 h,10.8 g
same,A/G,24 h,1.3
same,ALP,24 h,1546.4 IU/L
same,ALT,24 h,47 IU/L
same,AST,24 h,79 IU/L
same,BUN,24 h,16.2 mg/dL
same,CRE,24 h,0.1 mg/dL
same,Ca,24 h,10.6 mg/dL
same,Cl,24 h,107.4 meq/L
same,DBIL,24 h,0 mg/dL
same,GLC,24 h,195.4 mg/dL
same,IP,24 h,6.9 mg/dL
same,K,24 h,4.4 meq/L
same,LDH,24 h,207.6 IU/L
same,Na,24 h,142.8 meq/L
same,PL,24 h,126.6 mg/dL
same,RALB,24 h,3.1 g/dL
same,TBIL,24 h,0.004 mg/dL
same,TC,24 h,67.6 mg/dL
same,TG,24 h,123 mg/dL
same,TP,24 h,5.4 g/dL
same,gamma-GTP,24 h,1.2 IU/L
